How the values were obtained:
cervical motoneurons = experiment: Cervical motoneuron cell death in vivo; design: species or system chick
Description: The ability of the ICE inhibitors to block cell death in two classes of neurons whose naturally occurring death appears to be independent of target interaction was also studied. First, motoneurons in the cervical spinal cord undergo PCD between E4 and E5, with maximum levels occurring at E4.5.

chick spinal motoneurons = experiment: Motoneuron culture deprived of muscle extract, survival; format: cell-based; conditions: without muscle extract, treated between 14 and 24 hours, counted after 3 days
Description: A tissue culture model system that allows isolation of a relatively pure population of motoneurons whose survival is dependent on muscle extract, a potent source of target-derived trophic support, was used to test the ability of peptide inhibitors of ICE to block motoneuron cell death (Milligan et al., J Neurobiology 25:1005-1016 (1994) and Block-Gallego et al., Development. 111:221-232 (1991)). The death of motoneurons deprived of trophic support in vitro requires new gene expression and occurs by apoptosis (Milligan et al., J. Neurobiology 25:1005-1016 (1994)). Motoneurons deprived of trophic support at the time of plating become irreversibly committed to undergo cell death after 16-18 hours (Milligan et al., J. Neurobiology 25:1005-1016 (1994)). […] When motoneurons are treated with peptide inhibitors in the absence of muscle extract for three days and subsequently supplemented on day three with muscle extract, they continue to survive, and by six days appear as healthy and differentiated as the motoneurons that were continuously supplied with muscle extract (FIGS. 12A, 12B, 15G). Thus, motoneurons rescued for 3 days by ICE inhibitors remain capable of responding to trophic factors present in muscle extract.
Methods for motoneuron cultures. […]

[1] = system: undifferentiated neurons and precursor cells in the neural tube; experiment: Cell death in the early neural tube in vivo; design: species or system chick

Acetyl-Tyr-Val-Ala-Asp-aldehyde [Ac-YVAD-CHO]
survival promoting effects on cervical motoneurons (cervical motoneurons; compared to control or Ac-LLR-CHO treated animals): no survival promoting effects
Pyknotic Cervical Motoneurons on E4.5 (cervical motoneurons; mean ±SD): 25.9 ± 3.4
motoneuron death (chick spinal motoneurons): inhibitory effects on motoneuron death
survival promoting effects on floorplate or dorsal spinal cord cells ([1]; compared to control animals): no survival promoting effects
Pyknotic Cells in the Early Neural Tube, Dorsal Spinal Cord ([1]; mean ±SD): 1.350 ± 0.297
Pyknotic Cells in the Early Neural Tube, Floor Plate ([1]; mean ±SD): 1.115 ± 0.246
